The IC50 is the point on the concentration scale where inhibition reaches its midpoint.

Here are results for one compound from article PMC9495829, “Quercetin Is a Novel Inhibitor of the Choline Kinase of Streptococcus pneumoniae” (Antibiotics, 2022).

This test addresses T1, choline kinase of Streptococcus pneumoniae (sChoK) (Streptococcus pneumoniae, UniProt Q8DPI4).
T1 construct: gene pck
In words: colorimetric choline kinase assay (IC50); PK/LDH kinetics on purified recombinant sChoK (Ki […] +/- […], unit inferred). The test is classed as biochemical.

T1 sequence (Q8DPI4 entry or part of it): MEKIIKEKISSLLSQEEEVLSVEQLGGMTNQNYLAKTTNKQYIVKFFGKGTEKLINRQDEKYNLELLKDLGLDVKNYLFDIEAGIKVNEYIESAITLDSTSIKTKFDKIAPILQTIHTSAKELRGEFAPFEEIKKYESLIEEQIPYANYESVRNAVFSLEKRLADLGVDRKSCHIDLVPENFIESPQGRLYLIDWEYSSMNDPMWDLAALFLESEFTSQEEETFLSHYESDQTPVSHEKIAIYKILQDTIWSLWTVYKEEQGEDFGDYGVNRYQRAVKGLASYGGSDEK

Consider `O=c1c(O)c(-c2ccc(O)c(O)c2)oc2cc(O)cc(O)c12` [quercetin], for which the IC50 turned out to be 6.18 µM.
